Data published in PMC9147060, “Elucidating Pathway and Anesthetic Mechanism of Action of Clove Oil Nanoformulations in Fish” (Pharmaceutics, 2022).
pEC50: −log10 of the molar value.

Biological target: T1, GABAA receptor (γ-aminobutyric acid subtype A receptor)
T1 construct: gene Gabra1; native receptor mixture in cerebral cortical synaptosomal membranes of adult male rats
Assay: [3H]muscimol binding to rat cortical membranes, filtration
Conditions: enhancement of 5 nM [3H]muscimol binding; 50 mM Tris-HCl pH 7.4, 0-4 °C, 1 h; in DMSO; positive modulation

`C=CCc1ccc(O)c(OC)c1` [eugenol] gave a pEC50 of 2.90.
